Test results published in article PMC8298522 (Scientific Reports, 2021).

Tested on: insulin-positive and insulin-negative pancreatic tumors
Type: in vivo
Settings: [^68Ga]DOTATOC PET/CT, scan 30 min after injection
Description: PET scans were performed after 30 min of injection of the labeled substance via tail vein (10 MBq/mouse) under 2.0% isoflurane anesthesia using a Triumph LabPET12/SPECT4/CT (TriFoil Imaging Inc., Chatsworth, CA, USA)[41].
After completion of the PET/CT procedures, mice were sacrificed by cervical dislocation, followed by immediate resection of the pancreas. Tissues were spread on filter paper and immediately fixed in 10% formalin at 4 °C. For the analysis of pancreatic tumors, serial formalin-fixed paraffin-embedded sections (4-μm thickness) were stained with anti-insulin and anti-glucagon antibody, as previously reported[39]. Briefly, primary rabbit polyclonal antibody was used for insulin detection at an antibody dilution of 1:100 (Cat# sc-9168; Santa Cruz Biotechnology, USA) and a mouse monoclonal antibody glucagon detection at an antibody dilution of 1:100 (Cat# ab10988; Abcam, USA). The secondary antibodies utilized for the assay were Alexa Fluor 488 goat anti-rabbit antibody at 1:200 dilution (Cat# A-11008; Thermo Fisher Scientific, USA) and Alexa Fluor 546 goat anti-mouse antibody at 1:200 dilution (Cat# A-11030; Thermo Fisher Scientific, USA), respectively. The slides were prepared for analyses under a fluorescence microscope (BZ-X700; Keyence, Osaka, Japan).

## C[C@@H](O)[C@@H]1NC(=O)[C@H](CCCCN)NC(=O)[C@@H](Cc2c[nH]c3ccccc23)NC(=O)[C@H](Cc2ccc(O)cc2)NC(=O)[C@@H](NC(=O)[C@@H](Cc2ccccc2)NC(=O)CN2CCN(CC(=O)[O-])CCN(CC(=O)[O-])CCN(CC(=O)[O-])CC2)CSSC[C@@H](C(=O)N[C@H](CO)[C@@H](C)O)NC1=O.[68Ga+3] [[^68Ga]DOTATOC, ^68Ga-labeled 1,4,7,10-tetraazacyclododecane-N,N′,N″,N″-tetraacetic acid-d-Phe^1-Tyr^3-octreotide]
  Specificity for detecting insulin-positive tumors: 0%
